Laboratory results as given in patent US20210353721A1, “METHODS AND COMPOSITIONS RELATING TO INHIBITING CARDIOVASCULAR CALCIFICATION VIA ANNEXIN A1” (THE BRIGHAM AND WOMEN'S HOSPITAL, INC., priority 2018, published 2021).
Values belong to the molecule of their own block, whether it stands above or below them.

Key:
ANXA1 loading on EVs = ANXA1 loading on EVs derived from SMCs treated with mdivi-1 (western blot); assay type: cell-based; settings: human SMCs in OM, 14 days
Method: Primary Cell Culture. Primary human coronary artery SMCs were obtained from Promocell (Heidelberg, Germany) and expanded in SMC Growth Medium 2 (Promocell) supplemented with epidermal growth factor (0.5 ng/mL), insulin (5 μg/mL) basic fibroblast growth factor- B (2 ng/mL), and 5% fetal bovine serum. Primary human VICs were obtained from human aortic valve tissue using collagenase digestion (28, 30). Tissue-derived SMCs were confirmed as alpha smooth muscle actin-positive by FACS (30). Tissue-derived VICs were confirmed as vimentin positive by immunohistochemistry (28). Cells were cultured at 37° C. (5% CO2, 90% humidity) and used between passages 1 and 5. […] Tissue non-specific alkaline phosphatase (TNAP) activity was analyzed after 14 days in culture using whole cell lysates and the TNAP enzyme activity assay (BioVision, Inc., Milpitas, Calif.), according to the manufacturer's protocol. Calcification was analyzed in cells after 21 days in culture by incubating culture wells with OsteoSense680 (1:100), near-infrared based bisphosphonate calcium tracer, for 24 hours at 37° C. […]
RNA and Protein Analysis. […] ANXA1 EVs surface localization was assessed by isolating human SMC and VIC EVs. […]

[1] = molecular target: dynamin-related protein 1 (DRP1) (Homo sapiens, UniProt O00429); settings: OM; cited from earlier work
human ANXA1 = molecular target: T1, human ANXA1 (Homo sapiens, UniProt P04083); test: Vesicle tethering assay (turbidity of extrusion generated phosphatidylserine vesicles); assay type: biochemical
T1 construct: purchased R&D Systems
T1 sequence (P04083 1-346): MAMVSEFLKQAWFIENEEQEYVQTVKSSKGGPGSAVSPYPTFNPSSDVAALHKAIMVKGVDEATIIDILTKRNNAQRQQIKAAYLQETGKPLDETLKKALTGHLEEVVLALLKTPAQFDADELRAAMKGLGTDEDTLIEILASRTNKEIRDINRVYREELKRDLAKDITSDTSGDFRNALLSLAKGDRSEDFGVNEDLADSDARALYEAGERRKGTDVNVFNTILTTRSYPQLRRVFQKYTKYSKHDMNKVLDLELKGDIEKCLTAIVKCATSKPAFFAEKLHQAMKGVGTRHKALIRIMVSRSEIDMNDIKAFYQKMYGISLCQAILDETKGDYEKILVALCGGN
Method: Vesicle Tethering Assay. Vesicle tethering was assessed by using a previously reported protocol (19) with modifications to adjust to a 96-well plate reader format. Large unilaminar vesicles of ˜100 nm in diameter were generated by filter extrusion. Briefly, 2.5 mg of phosphatidylserine (Avanti Polar Lipids) was solubilized in 1 mL of buffer containing: 10 mmol/L Hepes (Sigma, St. Louis, Mo.), 100 mmol/L NaCl (Sigma), 100 μmon ethylenediaminetetraacetic acid (Boston BioProducts, Ashland, Mass.), pH 6. The lipid mixture was run through an extruder containing 0.1 μm polycarbonate membranes (Avanti Polar Lipids) ten times, during which point the lipid mixture went from cloudy to clear in appearance. Vesicles were assessed for correct size and abundance prior to use by NanoSight nanoparticle tracking analysis. […] 27 jd of extrusion generated vesicles were added to each well and vesicle aggregation was measured at wavelength 350 on a SpectraMax M5 96-well plate reader (Molecular Devices, San Jose, Calif.). For calcium chelation, 0.48 mmol/L ethylenediaminetetraacetic acid was incubated with 1 μg human ANXA1 protein for five minutes at room temperature prior to adding the extrusion generated vesicles, after which the reaction was carried out for 20 minutes and then aggregation was determined on a plate reader. […]

[2] = molecular target: ANXA1 on human SMC-derived EVs (Homo sapiens, UniProt P04083); settings: 0.48 mmol/L EDTA in PBS, 30 minutes at 37° C.
[3] = molecular target: ANXA1 on human VIC-derived EVs (Homo sapiens, UniProt P04083); settings: 0.48 mmol/L EDTA in PBS, 30 minutes at 37° C.
[4] = Annexin vesicle binding (confocal, swelling generated phosphatidylserine vesicles); settings: 2 μg ANXA1-GFP, 1 mmol/L CaCl2, five minutes
Method: Annexin Vesicle Binding. Giant unilamellar vesicles were generated using a previously described protocol (50) with some modifications. Briefly, for the confocal-based ANXA1 vesicle binding assay, 12 mm diameter cover glass circles were coated with 5% polyvinyl alcohol (Millipore, Burlington, Mass.) in water and left to dry overnight. Dried slides were then coated with 20 μl of 10 mg/mL phosphatidylserine (Avanti Polar Lipids, Alabaster, Ala.) in chloroform containing 0 1% DiR′; DiIC18(7) 1,1′-Dioctadecyl-3,3,3′,3′-Tetramethylindotricarbocyanine Iodide) (Fisher Scientific) and dried under vacuum. 1 mL of tris buffer (pH 6) was added to cover the coated cover glass circle in a 24-well plate, and giant unilaminar vesicles were formed by swelling at room temperature for 1 hour. Vesicles were detached from the cover glass by gently tapping the plate directly beneath the slide. ANXA1 tagged green fluorescent protein (ANXA1-GFP) was obtained by transfecting HEK-293 cells (ATCC, Manassas, Va.) with human ANXA1-GFP plasmid (OriGene, Rockville, Md., #RG201569). […] GFP laser settings were adjusted such that no GFP signal was detected in samples without ANXA1-GFP added.

dynamin-related protein 1 (DRP1), sequence (O00429 whole entry): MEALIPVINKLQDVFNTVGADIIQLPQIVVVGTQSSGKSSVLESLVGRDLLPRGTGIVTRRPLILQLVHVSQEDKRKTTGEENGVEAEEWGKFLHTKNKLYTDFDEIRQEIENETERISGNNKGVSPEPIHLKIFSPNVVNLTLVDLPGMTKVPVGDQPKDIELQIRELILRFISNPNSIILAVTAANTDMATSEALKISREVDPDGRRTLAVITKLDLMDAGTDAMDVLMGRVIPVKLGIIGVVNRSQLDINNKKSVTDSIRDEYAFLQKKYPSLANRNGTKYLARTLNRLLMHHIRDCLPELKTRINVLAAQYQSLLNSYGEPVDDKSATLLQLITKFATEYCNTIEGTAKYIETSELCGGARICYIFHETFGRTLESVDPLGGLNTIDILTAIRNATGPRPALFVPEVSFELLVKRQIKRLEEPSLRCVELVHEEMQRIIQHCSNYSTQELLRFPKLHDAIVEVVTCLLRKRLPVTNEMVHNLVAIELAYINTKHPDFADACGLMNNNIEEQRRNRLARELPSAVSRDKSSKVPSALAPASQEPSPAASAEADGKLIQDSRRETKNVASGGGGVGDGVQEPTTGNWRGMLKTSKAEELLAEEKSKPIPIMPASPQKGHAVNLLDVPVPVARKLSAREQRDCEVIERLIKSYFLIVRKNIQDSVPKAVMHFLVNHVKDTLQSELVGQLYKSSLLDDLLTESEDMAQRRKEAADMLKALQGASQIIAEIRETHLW

Molecule: COc1cc(-n2c(S)nc3ccccc3c2=O)c(Cl)cc1Cl [mdivi-1]
increased ANXA1 loading on EVs in OM (ANXA1 loading on EVs): suppressed
SMC and VIC calcification [1]: suppressed
intracellular calcium storage [1]: increased
mitochondrial fragmentation [1]: reduced

ANXA1-mediated vesicle aggregation (human ANXA1; 0.48 mmol/L EDTA, 1 μg human ANXA1 protein, 20 minutes): attenuated
ANXA1 release from EVs [2]: increased
ANXA1 release from EVs [3]: increased
Molecule: O=C(O)CN(CCN(CC(=O)O)CC(=O)O)CC(=O)O [EDTA, ethylenediaminetetraacetic acid]

B1: human ANXA1 protein: recombinant human ANXA1 (R&D Systems) (protein)
chain: AMVSEFLKQAWFIENEEQEYVQTVKSSKGGPGSAVSPYPTFNPSSDVAALHKAIMVKGVDEATIIDILTKRNNAQRQQIKAAYLQETGKPLDETLKKALTGHLEEVVLALLKTPAQFDADELRAAMKGLGTDEDTLIEILASRTNKEIRDINRVYREELKRDLAKDITSDTSGDFRNALLSLAKGDRSEDFGVNEDLADSDARALYEAGERRKGTDVNVFNTILTTRSYPQLRRVFQKYTKYSKHDMNKVLDLELKGDIEKCLTAIVKCATSKPAFFAEKLHQAMKGVGTRHKALIRIMVSRSEIDMNDIKAFYQKMYGISLCQAILDETKGDYEKILVALCGGN
vesicle aggregation (turbidity) (human ANXA1; 0 up to 5 μg recombinant ANXA1, 1 mmol/L CaCl2, ~150 nm phosphatidylserine vesicles): time- and concentration-dependent vesicle aggregation

B2: GFP-tagged ANXA1: green fluorescent protein tagged human ANXA1 immunopurified from transfected HEK-293 cells (protein)
chain: MAMVSEFLKQAWFIENEEQEYVQTVKSSKGGPGSAVSPYPTFNPSSDVAALHKAIMVKGVDEATIIDILTKRNNAQRQQIKAAYLQETGKPLDETLKKALTGHLEEVVLALLKTPAQFDADELRAAMKGLGTDEDTLIEILASRTNKEIRDINRVYREELKRDLAKDITSDTSGDFRNALLSLAKGDRSEDFGVNEDLADSDARALYEAGERRKGTDVNVFNTILTTRSYPQLRRVFQKYTKYSKHDMNKVLDLELKGDIEKCLTAIVKCATSKPAFFAEKLHQAMKGVGTRHKALIRIMVSRSEIDMNDIKAFYQKMYGISLCQAILDETKGDYEKILVALCGGN
modifications: left off: large carriers
notes: green fluorescent protein tagged human ANXA1 immunopurified from transfected HEK-293 cells
ANXA1 localization on tethered vesicles [4]: enriched ANXA1 at tethered vesicle membrane contact sites
